What follows are compounds tested against DRAK2 (Homo sapiens (Human), UniProt O94768) (assay: Evaluation of DRAK2 inhibitory activity by ADP-Glo kinase assay). Conditions: ADP-Glo luminescent kinase assay.
Format: biochemical
Description: To determine the inhibitory activity of compounds against kinases by the kinase assay kit ADP-GLO.
DRAK2 is a serine/threonine protein kinase. ADP Glo& #8482; Kinase Assay (ADP Glo& #8482; Kinase Assay Kit) is a luminescent kinase assay kit that can detect ADP formed during kinase reactions; this kit can firstly convert ADP into ATP, which is then captured by Ultra Glo& #8482, luciferase and ultimately converts into light. The emitted light signal is positively correlated with the corresponding ATP, thus through this method, the inhibitory activity of small molecule compounds on DRAK2 can be measured.
The compound was dissolved in DMSO before experiment to prepare stock solution.
When using, the stock solution was diluted with culture medium to a desired concentration.
• 1. 1 μl of compound was added to the well for each assay • 2. […] 2 μl of ATP was added to each well of the assay plate • 4. the plate was shook and centrifuged.
2.5 μl ADP-Glo™ reagent was add to terminate kinase reaction and consume unconsumed ATP, leaving only ADP and very low ATP background to incubate at room temperature for 60 minutes.
5 μl of kinase assay reagent was add to convert ADP to ATP, and luciferase and […] were introduced to detect ATP.
Envision was used to measure luminescence
• 1. Values were copied from Envision program
The “minimum” refers to the proportion of without enzyme control, while “maximum” refers to the proportion of DMSO control. • 3. GraphPad Prism 5.0 was used to process data
Through this method, the inhibitory activity of small molecule compounds on DRAK2 can be obtained.

Chain of DRAK2 (O94768 whole entry, species assumed): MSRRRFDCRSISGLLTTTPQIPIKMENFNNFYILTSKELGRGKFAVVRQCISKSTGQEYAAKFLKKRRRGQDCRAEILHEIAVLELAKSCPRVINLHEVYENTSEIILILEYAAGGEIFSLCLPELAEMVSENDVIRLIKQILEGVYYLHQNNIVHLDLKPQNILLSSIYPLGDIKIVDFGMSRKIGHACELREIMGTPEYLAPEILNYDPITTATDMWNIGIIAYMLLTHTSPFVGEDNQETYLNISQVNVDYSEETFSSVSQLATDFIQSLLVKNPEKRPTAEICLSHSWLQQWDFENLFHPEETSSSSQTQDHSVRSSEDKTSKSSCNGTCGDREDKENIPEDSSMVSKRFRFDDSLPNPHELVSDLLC

IC50 [µM] | SMILES
4.93 ± 1.09 | CCCCCCc1cccc(CCCc2cc(O)cc(NS(=O)(=O)CC)c2)c1 [Compound 39]
7.73 ± 0.7 | CCCCCCC=CCCCCCCCc1ccc(O)cc1O [Compound 1]
4.06 ± 0.35 | CCCCCCc1cccc(CCCc2cc(O)cc(O)c2Cl)c1 [Compound 28]
4.94 ± 1.18 | CCCCCCc1cccc(CCCc2cc(O)cc(O)c2)c1 [Compound 17]

— US20240351966A1, “CLASS OF ALKYLPHENOL COMPOUNDS AND PREPARATION METHOD THEREFOR” (Shanghai Institute of Materia Medica, Chinese Academy of …, priority 2021, published 2024)
